Results as given in patent EP1234575A1, “Furan fatty acids for improving the efficiency of cytostatic and/or radiation therapy” (Deigner, Hans-Peter, Dr., priority 2001, dated 2002).

Assays:
[1] = tested on: Nierenkarzinomzelllinie (RENCA); experiment: Apoptosis in RENCA renal carcinoma cells: FFS alone or 2 h FFS pre-incubation followed by a cytostatic (YO-PRO-1 positive cells, DNA laddering); type: cell-based; conditions: for Zahl apoptotischer Zellen bei 50 nM relativ zu 100 nM: 50 nM FFS versus 100 nM FFS, plus Daunorubicin; for Zahl apoptotischer Zellen bei 50 nM relativ zu 100 nM / höhere Anzahl apoptotischer Zellen im Vergleich zur Kontrolle mit Daunorubicin alleine / Konzentrationsabhängigkeit des prozentualen Anteils apoptotischer Zellen: Renca-Zellen; for höhere Anzahl apoptotischer Zellen im Vergleich zur Kontrolle mit Daunorubicin alleine: 1000 nM FFS plus Daunorubicin (1 µM per Figur 3); for Konzentrationsabhängigkeit des prozentualen Anteils apoptotischer Zellen: FFS 0 to 1000 nM plus Daunorubicin
Text: (§1) Untersuchungen der pro- bzw. antiapoptotischen Wirkung der FFS wurden an einer Nierenkarzinomzelllinie (RENCA; Murphy et al., J. Natl. Cancer Inst. 50: 1013, 1973) durchgeführt. Dazu wurden die Zellen 22 Stunden zum einen mit einem Zytostatikum, zum anderen mit der entsprechenden FFS sowie einer Kontrolle und einer Kombination aus FFS und Zytostatikum inkubiert. Für die Substanzkombination aus FFS und Zytostatikum wurden die Zellen zwei Stunden mit der jeweiligen FFS vorinkubiert, anschließend das Zytostatikum zugegeben und danach für 24 Stunden im Brutschrank inkubiert. Die verwendeten Konzentrationen sind in Figur 3 angegeben. Diese Untersuchungen wurden mit den Verbindungen 11a/11b, 12b, 6b, 13b und 14 sowie jeweils für jedes Zytostatikum getrennt durchgeführt. Es zeigte sich bei keiner der getesteten FFS (alleinige Zugabe) eine signifikante Zunahme der Zahl apoptotischer Zellen gegenüber der Kontrolle. Bei Inkubation der Zellen mit einer FFS und anschließender Zytostatikumgabe konnten unterschiedliche Effekte beobachtet werden .
Bei den alkin-substituierten FFS wurde bei Verwendung von Daunorubicin in Kombination mit 11a eine Zunahme von 60% und in Kombination mit 11b eine Abnahme der Anzahl apoptotischer Zellen gemessen. Bei Verwendung von Vinblastin als Zytostatikum nahm bei beiden FFS 11a und 11b die Zahl apoptotischer Zellen von 60% bzw. 160% zu.
(§2) Da die FFS 11a und 11b als einzige aller synthetisierten FFS eine signifikante Zunahme an apoptotischen Zellen bei Inkubation in Kombination mit einem Zytostatikum zeigten, wurde untersucht, ob dieser Effekt von der Konzentration der FFS abhängt. Daher wurde das oben beschriebene Experiment an Renca-Zellen unter den gleichen Bedingungen, aber mit jeweils verschiedenen Konzentrationen von 11a bzw. 11b im Bereich von 0 bis 1000 nM durchgeführt (Figur 3). […] Der prozentuale Anteil apoptotischer Zellen nahm mit steigender FFS Konzentration zu und mit fallender ab. Bei Inkubation mit einer 1000 nM-Lösung wurde eine 6.1 bzw. 5.2-fach höhere Anzahl apoptotischer Zellen im Vergleich zur Kontrolle mit Daunorubicin alleine festgestellt. […] Bei Inkubation der Zellen mit FFS ohne Zytostatikum wurden auch bei hoher FFS Konzentration keine signifikante Zu- bzw. Abnahme der Apoptoserate festgestellt. Die Apoptoserate wurde routinemäßig durch Messung YO-PRO-1 positiver Zellen^5,6 DNA-Leiter-Untersuchungen ("DNA-laddering") ermittelt.

Morris-Hepatom = experiment: Apoptosis in Morris hepatoma cells: FFS alone or FFS pre-incubation followed by a cytostatic; type: cell-based, Ratte
Text: as §1
Aufgrund dieser Effekte wurde mit den alkin-substituierten FFS 11a und 11b an einer weiteren Karzinomzelllinie (Morris-Hepatom; Tumorbank DKFZ Heidelberg, TZB No. 620143, MH TC 5123, histologischer Typ: Hepatom, Herkunft/Spezies: Ratte, Buffalo) die oben beschriebenen Untersuchungen durchgeführt. Die Konzentrationen der verwendeten FFS bzw. Zytostatika sind in Figur 4 angegeben. FFS alleine zeigten auch hier keine Effekte. Bei einer Kombination aus Daunorubicin mit der FFS 11a bzw. 11b stieg die Zahl apoptotischer Zellen um 130% bzw. 60% und bei einer Kombination FFS 11a bzw. 11b mit Vinblastin um 85% bzw. 50% .
as §2

[2] = 2 h FFS pre-incubation, then Daunorubicin, 24 h, RENCA
[3] = 2 h FFS pre-incubation, then Vinblastin, 24 h, RENCA

Compound	Anzahl apoptotischer Zellen (change, in words) [1, 2]	Anzahl apoptotischer Zellen (change, in words) [1, 3]	Zahl apoptotischer Zellen bei 50 nM relativ zu 100 nM [1]	höhere Anzahl apoptotischer Zellen im Vergleich zur Kontrolle mit Daunorubicin alleine [1]	Zunahme der Anzahl apoptotischer Zellen [1, 2]	Zunahme der Zahl apoptotischer Zellen [1, 3]	Konzentrationsabhängigkeit des prozentualen Anteils apoptotischer Zellen [1]	Anstieg der Zahl apoptotischer Zellen (Morris-Hepatom; FFS combined with Daunorubicin)	Anstieg der Zahl apoptotischer Zellen (Morris-Hepatom; FFS combined with Vinblastin)
CCC(=O)/C=C/c1ccc(CCCCCCCCCCC(=O)OC)o1 [6b, 11-[5(3-Oxo-pentenyl)-furan-2-yl]-undecansäure-methylester]	leichter Rückgang	leichter Rückgang	–	–	–	–	–	–	–
COC(=O)CCCCCCCCC#Cc1ccc(/C=C/C(C)=O)o1 [11a, 11-[5-(3-Oxo-1-butenyl)-furan-2-yl]-10-undecinsäuremethylester]	–	–	ca. halb so groß	6.1 fach	60%	60%	deutliche Konzentrationsabhängigkeit	130%	85%
CCC(=O)/C=C/c1ccc(C#CCCCCCCCCC(=O)OC)o1 [11b, 11-[5-(3-Oxo-1-pentenyl)-furan-2-yl]-10-undecinsäure-methylester]	Abnahme	–	ca. halb so groß	5.2 fach	–	160%	deutliche Konzentrationsabhängigkeit	60%	50%
CCC(=O)/C=C/c1ccc(/C=C\CCCCCCCCC(=O)OC)o1 [12b]	leichter Rückgang	leichter Rückgang	–	–	–	–	–	–	–
CCC(=O)CCc1ccc(CCCCCCCCCCC(=O)OC)o1 [13b, 11-[5(3-Oxo-pentyl)-furan-2-yl]-undecansäure-methylester]	leichter Rückgang	leichter Rückgang	–	–	–	–	–	–	–
